According to ChEMBL document CHEMBL1135266, “Covalent analogues of DNA base-pairs and triplets. Part 2: synthesis and cytostatic activity of bis(purin-6-yl)acetylenes,-diacetylenes and related compounds” (Bioorg Med Chem Lett, 2002):
pIC50: −log10 of the molar value.

What was measured:
CCRF-CEM [1] = assay: Tested in vitro for the inhibition of cell growth of human T lymphoblastoid CCRF-CEM cell line (ATCC CCL 119); format: functional, cell-based
HeLa [2] = assay: Tested in vitro for the inhibition of cell growth of human cervix carcinoma HeLa S3 cell (ATCC CCL 2.2); format: functional, cell-based
L1210 [3] = assay: Tested in vitro for the inhibition of cell growth of mouse leukemia L1210 cell (ATCC CCL 219); format: functional, cell-based
L929 [4] = assay: Tested in vitro for the inhibition of cell growth of murine L929 cells (ATCC CCL 1); format: functional, cell-based; details: Mus musculus
HeLa [5] = assay: Tested in vitro for the inhibition of cell growth of human cervix carcinoma HeLa S3 cell (ATCC CCL 2.2); na = not active (inhibition of cell growth at 10 uM was lower than 20%); format: functional, cell-based
L1210 [6] = assay: Tested in vitro for the inhibition of cell growth of mouse leukemia L1210 cell (ATCC CCL 219); na = not active (inhibition of cell growth at 10 uM was lower than 20%); format: functional, cell-based
L929 [7] = assay: Tested in vitro for the inhibition of cell growth of murine L929 cells (ATCC CCL 1); na = not active (inhibition of cell growth at 10 uM was lower than 20%); format: functional, cell-based, Mus musculus
CCRF-CEM [8] = assay: Tested in vitro for the inhibition of cell growth of human T lymphoblastoid CCRF-CEM cell line (ATCC CCL 119); na = not active (inhibition of cell growth at 10 uM was lower than 20%); format: functional, cell-based

SMILES	pIC50 (CCRF-CEM [1])	pIC50 (HeLa [2])	pIC50 (L1210 [3])	IC50 (HeLa [5])	IC50 (L1210 [6])	IC50 (CCRF-CEM [8])	pIC50 (L929 [4])	IC50 (L929 [7])
C(C#Cc1ncnc2c1ncn2C1CCCCO1)#Cc1ncnc2c1ncn2C1CCCCO1 (stereo not given)	6.24	4.88	6.15				6.00	
C(#Cc1ncnc2c1ncn2Cc1ccccc1)c1ncnc2c1ncn2Cc1ccccc1	6.05		5.74	Not Active			5.28	
C(=C\c1ncnc2c1ncn2Cc1ccccc1)/c1ncnc2c1ncn2Cc1ccccc1				Not Active	Not Active	Not Active		Not Active
c1ccc(Cn2cnc3c(CCc4ncnc5c4ncn5Cc4ccccc4)ncnc32)cc1				Not Active	Not Active	Not Active		Not Active
C(=Cc1ncnc2c1ncn2Cc1ccccc1)c1ncnc2c1ncn2Cc1ccccc1				Not Active	Not Active	Not Active		Not Active

Further lines, with some results ahead:

pIC50 (CCRF-CEM [1])	pIC50 (HeLa [2])	pIC50 (L1210 [3])	IC50 (HeLa [5])	IC50 (L1210 [6])	IC50 (CCRF-CEM [8])	SMILES	pIC50 (L929 [4])	IC50 (L929 [7])
6.49	5.22	6.05				C(#Cc1ncnc2c1ncn2C1CCCCO1)c1ncnc2c1ncn2Cc1ccccc1 (stereo not given)	5.72	
6.30	< 4.60	> 7.70				O=c1[nH]c(=O)n([C@H]2C[C@H](O)[C@@H](CO)O2)cc1F [FLOXURIDINE]	< 4.60	
6.43	4.82	6.30				CCCCCn1cnc2c(C#CC#Cc3ncnc4c3ncn4CCCCC)ncnc21	5.89	
6.44	4.82	5.82				CCCCCn1cnc2c(C#Cc3ncnc4c3ncn4CCCCC)ncnc21	5.52	
6.37		6.43	Not Active			C(C#Cc1ncnc2c1ncn2Cc1ccccc1)#Cc1ncnc2c1ncn2Cc1ccccc1	5.20	
